Data taken from ChEMBL document CHEMBL5576072, “Discovery of a potent and selective JAK1-targeting PROTAC degrader with anti-tumor activities” (Bioorg Med Chem Lett, 2024).
Activity calls are given as the source filed them. No cut-off for these calls is given here.

How the values were obtained:
THP-1 = assay: Antiproliferative activity against human THP-1 cells
HEL = assay: Antiproliferative activity against HEL cells; details: Homo sapiens
K562 = assay: Antiproliferative activity against human K562 cells
[1] = molecular target: Signal transducer and activator of transcription 3 (Homo sapiens) (UniProt P40763); assay: Inhibition of STAT3 phosphorylation in HEL cells at 1 uM pretreated with momelotinib followed by compound addition and measured after 24 hrs by Western blotting analysis; assay type: cell-based
Signal transducer and activator of transcription 3 (Homo sapiens), sequence (P40763 whole entry): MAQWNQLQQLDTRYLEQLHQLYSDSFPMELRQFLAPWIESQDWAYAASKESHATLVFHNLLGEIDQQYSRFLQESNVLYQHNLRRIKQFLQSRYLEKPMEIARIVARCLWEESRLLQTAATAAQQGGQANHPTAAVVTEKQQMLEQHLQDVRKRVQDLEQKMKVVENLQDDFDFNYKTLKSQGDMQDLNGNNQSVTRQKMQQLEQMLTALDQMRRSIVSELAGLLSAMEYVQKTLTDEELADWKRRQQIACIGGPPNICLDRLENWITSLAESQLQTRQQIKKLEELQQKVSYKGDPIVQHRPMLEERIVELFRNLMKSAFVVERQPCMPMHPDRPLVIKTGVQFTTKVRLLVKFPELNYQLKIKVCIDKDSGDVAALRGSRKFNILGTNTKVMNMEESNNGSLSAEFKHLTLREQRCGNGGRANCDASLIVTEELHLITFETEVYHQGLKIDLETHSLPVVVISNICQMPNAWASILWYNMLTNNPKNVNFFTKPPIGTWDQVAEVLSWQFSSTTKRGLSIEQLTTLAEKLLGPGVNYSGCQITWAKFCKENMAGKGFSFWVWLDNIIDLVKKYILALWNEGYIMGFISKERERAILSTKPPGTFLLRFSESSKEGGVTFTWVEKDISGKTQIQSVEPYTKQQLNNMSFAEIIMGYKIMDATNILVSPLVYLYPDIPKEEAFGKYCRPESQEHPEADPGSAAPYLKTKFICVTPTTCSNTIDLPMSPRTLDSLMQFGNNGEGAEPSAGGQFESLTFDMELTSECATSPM

[2] = molecular target: T1, Signal transducer and activator of transcription 1-alpha/beta (Homo sapiens) (UniProt P42224); assay: Inhibition of STAT1 phosphorylation in HEL cells at 1 uM pretreated with momelotinib followed by compound addition and measured after 24 hrs by Western blotting analysis; assay type: cell-based
T1 sequence (whole entry): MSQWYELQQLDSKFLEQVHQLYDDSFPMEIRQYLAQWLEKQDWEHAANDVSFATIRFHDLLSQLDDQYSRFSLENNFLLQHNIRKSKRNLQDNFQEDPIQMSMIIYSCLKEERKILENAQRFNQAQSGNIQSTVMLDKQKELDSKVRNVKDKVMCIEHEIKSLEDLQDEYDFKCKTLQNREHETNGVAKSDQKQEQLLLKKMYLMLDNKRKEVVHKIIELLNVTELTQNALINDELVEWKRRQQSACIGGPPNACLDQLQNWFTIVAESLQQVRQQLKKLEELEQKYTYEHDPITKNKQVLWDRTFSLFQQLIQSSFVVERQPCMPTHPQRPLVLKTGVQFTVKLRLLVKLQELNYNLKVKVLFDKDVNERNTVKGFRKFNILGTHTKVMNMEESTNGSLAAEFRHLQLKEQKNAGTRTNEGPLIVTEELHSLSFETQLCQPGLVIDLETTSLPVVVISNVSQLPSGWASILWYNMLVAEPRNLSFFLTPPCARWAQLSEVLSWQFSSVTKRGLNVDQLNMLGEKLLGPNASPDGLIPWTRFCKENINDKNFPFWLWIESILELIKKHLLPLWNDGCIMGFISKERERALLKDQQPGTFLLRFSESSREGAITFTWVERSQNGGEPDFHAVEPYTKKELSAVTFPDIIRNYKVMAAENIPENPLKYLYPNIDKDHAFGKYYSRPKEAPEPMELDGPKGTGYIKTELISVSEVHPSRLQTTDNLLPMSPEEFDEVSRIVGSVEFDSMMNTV

[3] = molecular target: T1, Signal transducer and activator of transcription 1-alpha/beta (Homo sapiens); assay: Inhibition of STAT1 phosphorylation in HEL cells at 1 uM incubated for 24 hrs by Western blotting analysis; assay type: cell-based
[4] = molecular target: Signal transducer and activator of transcription 3 (Homo sapiens) (UniProt P40763); assay: Inhibition of STAT3 phosphorylation in HEL cells at 1 uM pretreated with MG132 followed by compound addition and measured after 24 hrs by Western blotting analysis; assay type: cell-based
[5] = molecular target: Signal transducer and activator of transcription 3 (Homo sapiens) (UniProt P40763); assay: Inhibition of STAT3 phosphorylation in HEL cells at 1 uM incubated for 24 hrs by Western blotting analysis; assay type: cell-based
[6] = molecular target: T1, Signal transducer and activator of transcription 1-alpha/beta (Homo sapiens); assay: Inhibition of STAT1 phosphorylation in HEL cells at 1 uM pretreated with MG132 followed by compound addition and measured after 24 hrs by Western blotting analysis; assay type: cell-based

| IC50 (THP-1) [µM] | IC50 (K562) [µM] | inhibition [1] | inhibition [2] | inhibition [3] | inhibition [4] | inhibition [5] | inhibition [6] | Structure (SMILES) | IC50 (HEL) [µM] |
| --- | --- | --- | --- | --- | --- | --- | --- | --- | --- |
| > 50 | > 50 | – | – | – | – | – | – | N#CCNC(=O)c1ccc(-c2ccnc(Nc3ccc(N4CCC(C(=O)NCCCCCC#Cc5cccc6c5C(=O)N(C5CCC(=O)NC5=O)C6=O)CC4)cc3)n2)cc1 (stereo not given) | > 50 |
| > 50 | 45.1 | – | – | – | – | – | – | N#CCNC(=O)c1ccc(-c2ccnc(Nc3ccc(N4CCC(C(=O)NCCCC#Cc5cccc6c5C(=O)N(C5CCC(=O)NC5=O)C6=O)CC4)cc3)n2)cc1 (stereo not given) | 37.1 |
| 10.5 | 6.1 | inactive | inactive | Active | inactive | Active | inactive | N#CCNC(=O)c1ccc(-c2ccnc(Nc3ccc(N4CCC(C(=O)NCCCCC#Cc5cccc6c5C(=O)N(C5CCC(=O)NC5=O)C6=O)CC4)cc3)n2)cc1 (stereo not given) | 1.3 |
